The source of these data is a melting point compilation (Tetko et al.; mined from patent text by program, amines drawn as free bases though some values may be those of a salt).

For orientation: melting point means the temperature, or range, at which the solid turns liquid.

`Nc1ccc(-c2ccc(N)cc2C(=O)OCCCCCCOc2ccc(-c3ccccc3)cc2)c(C(=O)OCCCCCCOc2ccc(-c3ccccc3)cc2)c1`: the melting point is 122 to 124 °C. To `COc1ccc(S(=O)(=O)C(CC(=O)NO)Cc2ccc(Oc3ccccc3)cc2)cc1` (configuration not stated) belongs 65 to 70 °C; to `COc1ccc2nc3cc(Cl)ccc3c(Oc3ccc(Cl)cc3)c2c1`, 152 to 153 °C.

In turn, `CCCCCCCCCCCCCCCCCCS(=O)(=O)c1ccc(C)cc1` returned a melting point of 79 to 80 °C. As to `O=C1C(CCO)Oc2ccccc2N1Cc1ccccc1` (configuration not stated), the melting point lay within 83 to 85.5 °C. To `O=Cc1cccc2ncc(C3CCCCC3)cc12` belongs 94 to 95 °C; to `COc1ccc(N(C(=O)CCl)c2c(Cl)cccc2Cl)cc1`, 105 to 106 °C; to `CCCCOc1cc(-c2ccccc2)c(OCC(=O)O)c(-c2ccccc2)c1`, 92 to 94 °C. On to `CCCCC1(N(C)C)CCC2(CC1)c1[nH]c3ccccc3c1CCN2C(=O)NCC` (configuration not stated), for which the melting point fell in the range of 182 to 184 °C.

On to `CN1CC(c2ccc(OCc3ccc(F)cc3)cn2)=C(O)C1=O`, for which the melting point fell in the range of 210 to 211 °C. To `CCCCCCCCCc1ccc(C(Sc2cccc(NC(=O)CC(=O)O)c2)C(=O)CCCC(=O)O)cc1` (configuration not stated) belongs 88 to 91 °C; to `CC(C)(C)OC(=O)NC(CC(=O)ON1C(=O)CCC1=O)c1ccc(-c2ccccc2)cc1` (configuration not stated), 161 °C; to `COc1ccc(CCOc2cccc(-c3cccc(C(=O)O)c3)c2)cc1OC`, 100 to 102 °C. As for `COc1ccc(-n2ncc3c2-c2ccccc2C3)cc1`, the melting point was in the range of 102 to 103 °C. `O=C(O)c1cn(CCc2ccc(O)cc2)c2cc(C3CC3)nn2c1=O`: the melting point was in the range of 265 to 270 °C. The molecule `C#CCn1c(-c2cc(Cl)nc(Cl)c2)nc(OS(=O)(=O)C(F)(F)F)c(CC)c1=O` displayed a melting point of 112 to 114 °C. The same measure for `COC(=O)c1ccc(C=CC(=O)N2CCc3c([nH]c4ccccc34)C2c2ccc3c(c2)OCCO3)cc1` (configuration not stated): 136 °C; for `COc1ccc2c(c1OC)CCCC(C(=O)O)=C2`: 208 to 209 °C; for `COC(=O)Cc1ccc2c(c1)C(OC)=Cc1ccccc1C2`: 72 to 73 °C. In turn, `Oc1ccc(F)c(-c2c(-c3ccccc3)cnc3c(C(F)(F)F)cccc23)c1` came in with a melting point of 85 °C.

Molecule `O=C(O)CCCSc1cccc(Br)n1` showed a melting point of 72 to 74 °C. The same measure for `COc1cccc(OC)c1N(COCC(C)C)C(=O)CCl`: 107 to 110 °C; for `CC(C)(C)OC(=O)NCCCc1ccccc1OCc1ccccc1`: 50 to 52 °C.

As for `O=C(NCc1ccc(Cl)cc1)c1cn2c3c(cc(CN4CCOCC4)cc3c1=O)OC(CN1CCCC1)C2` (configuration not stated), the melting point lay in the range of 210 to 212 °C.

On to `CC1CCCCN1CCNc1ccnc2cc(Cl)ccc12` (racemic), for which the melting point fell in the range of 133 to 134 °C. In turn, `CN(C)Cc1ccc(Cl)cc1C(=O)c1ccccc1F` came in with a melting point of 91 to 92 °C. Regarding `CCCCNc1cccc(O)c1`, the melting point was found to be 35 °C. Turning to `CCOC(=O)CCCCCOc1cc2ccc(-c3ccc(C(=O)O)cc3)cc2cc1C12CC3CC(CC(C3)C1)C2`, the melting point lay in the range of 270 to 271 °C.

`CC(C)n1c(C=O)c(-c2ccc(F)cc2)c(-c2ccc(F)cc2)c1C(=O)NCc1ccc(S(C)(=O)=O)cc1` gave a melting point of 203 to 204 °C.

With `CCOC(Cc1ccc(OCCN(C)c2nc3ccccc3o2)cc1)C(=O)O` (configuration not stated), the melting point was in the range of 109 to 110 °C. The same measure for `O=c1[nH]c2cc(Cl)ccc2c(O)c1-c1ccccc1Oc1ccccc1`: 284 to 288 °C; for `COc1ccc(-c2n[nH]c3c2sc2ccccc23)cc1`: 185 to 187 °C; for `COC1CN(CCCNc2ncccn2)CCC1NC(=O)C1=CC(Cl)(OC)C(N)C=C1` (configuration not stated): 158 °C. The same measure for `CC(C)C[C@H](NC(=S)Nc1ccccc1)C(=O)N[C@H]1CCOC1O` (some centres not stated): 62 to 63.8 °C; for `OC1(c2ccc(F)cc2)N=C2SCCN2C1c1ccc(F)cc1` (configuration not stated): 159 to 160 °C. The same measure for `CCOC(=O)C(=CN(C)C)C(=O)c1cc(F)c(Cl)cc1Cl`: 94 to 95 °C; for `O=C(NCCc1cccs1)C12CC3CC(CC1C3)C2`: 113 to 114 °C. In turn, `CC1(C)OC(=O)Nc2ccc(-c3ccc(S(N)(=O)=O)s3)cc21` had a melting point of 258 to 260 °C. Molecule `Clc1ccc2nc(N3CCN(c4c(Cl)cncc4Cl)CC3)[nH]c2c1` had a melting point of 258 to 260 °C. `CC(C)Cn1cnc2c(N)nc3cc(CCc4ccccc4)ccc3c21` registered a melting point of 172 to 173 °C. To `[N-]=[N+]=N[C@H]1C[C@H](C(=O)O)C1` belongs 39 to 41 °C; to `Cc1cn(C)c2ccc(NC(=O)Nc3cccnc3)cc12`, 210 °C.

`CC(C)COC(=O)N1CCN(c2c(C(=O)N3CCN(C)CC3)c3ccccc3n2-c2ccccc2)CC1` came in with a melting point of 132 to 133 °C. To `O=C(CCl)Oc1ccccc1CCC1SCCN1C(=O)CCl` (configuration not stated) belongs 88 to 89 °C; to `Clc1ccc2c(c1)Cc1ccccc1CN2`, 137 to 141 °C. The same measure for `Cc1cc(C)cc(NCc2ccc3nc(NC4CCNC(CCN5CCOCC5)C4)n(Cc4nc(C)ccc4O)c3c2)c1` (configuration not stated): 150 °C; for `O=C1CCC(c2ccccc2)(c2ccccc2)[C@@H]2CN(C(=O)Cc3c[nH]c4ccccc34)C[C@H]12` (racemic): 250 °C; for `COc1ccc(-c2ccc(C(=O)O)cc2)cc1OCCCCc1ccccc1`: 178 to 179 °C.

For `CSc1cc(C)nc(SC)c1NC(=O)CN1CCN(CCO)CC1`, the melting point fell in the range of 119 to 120 °C. To `Cc1ccc(-c2nnc(N3CCC4(CC3)OCCO4)nc2-c2ccc(C)cc2)cc1` belongs 169 to 170 °C. The same measure for `CC(C)(C)c1cc(CN)cc(C(C)(C)C)c1O`: 159 °C; for `O=C(CC1COC1)N[C@H]1CC[C@H](CCN2CCN(c3nccc4c3CCO4)CC2)CC1`: 195 °C.

Turning to `c1ccc2c(c1)OCC(c1ncc[nH]1)O2` (configuration not stated), the melting point lay within 225 to 227 °C. The same measure for `CCCOC(C)c1ccc(-c2ccc(C(=O)O)cc2)cc1` (single isomer, unassigned; (+)): 172 °C; for `O=C1OCCN1c1ccc([N+](=O)[O-])cc1Cl`: 94 to 96 °C; for `CN(C)C1(c2ccc(F)cc2)CCC(=CC(=O)N2CCC(c3c[nH]c4ccccc34)C2)CC1` (configuration not stated): 109 to 112 °C. As for `NS(=O)(=O)c1ncccc1NC=O`, the melting point turned out to be 183 °C. With `Cn1c(Oc2cccc(C(F)(F)F)c2)nc2c(-c3cccc(C(=O)NCC(N)=O)c3)cccc21`, the melting point lay in the range of 185 to 186 °C. For `CCCCN(CCCC)c1nc(-c2ccc(OC)cc2)nc2sc(C#N)c(C)c12`, the melting point lay within 96 to 98 °C. With `Cc1cccc2cc(N3CCN(C)CC3)[nH]c(=O)c12`, the melting point was 224 to 225 °C. The same measure for `CCCCCCCNC(=O)Nc1ccccc1C(=O)NCCCC1CCN(C(c2ccccc2)c2ccccc2)CC1`: 123 to 124 °C; for `C=C(c1ccc(C(=O)OC)cc1)N1CC1C(N)=O` (configuration not stated): 149 to 150 °C.
